Measured values from ChEMBL document CHEMBL3763010, “Inhibition of monoamine oxidase by benzoxathiolone analogues” (Bioorg Med Chem Lett, 2016).

Experiments:
Homo sapiens = species: Homo sapiens; assay: Selectivity index, ratio of IC50 for recombinant human MAO-A to recombinant human MAO-B
[1] = molecular target: T1, Amine oxidase [flavin-containing] B (Homo sapiens, UniProt P27338)
T1 sequence (P27338 whole entry): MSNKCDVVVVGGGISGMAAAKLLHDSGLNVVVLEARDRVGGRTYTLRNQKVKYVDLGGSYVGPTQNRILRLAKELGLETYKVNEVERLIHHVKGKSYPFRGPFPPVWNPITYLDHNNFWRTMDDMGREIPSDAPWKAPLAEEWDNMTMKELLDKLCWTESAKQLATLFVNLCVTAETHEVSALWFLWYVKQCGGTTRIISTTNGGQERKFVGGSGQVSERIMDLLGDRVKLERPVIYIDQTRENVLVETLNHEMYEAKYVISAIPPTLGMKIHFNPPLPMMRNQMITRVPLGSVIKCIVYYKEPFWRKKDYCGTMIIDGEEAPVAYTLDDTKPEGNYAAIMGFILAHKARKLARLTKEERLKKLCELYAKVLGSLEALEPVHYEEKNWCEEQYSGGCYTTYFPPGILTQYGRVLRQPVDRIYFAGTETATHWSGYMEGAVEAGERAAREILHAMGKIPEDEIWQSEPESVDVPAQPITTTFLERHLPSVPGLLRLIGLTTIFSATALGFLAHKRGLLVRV
Description: Inhibition of recombinant human MAO-B after 20 mins using 50 uM kynuramine as substrate by fluorescence spectrophotometry

[2] = molecular target: T2, Amine oxidase [flavin-containing] A (Homo sapiens, UniProt P21397)
T2 sequence (P21397 whole entry): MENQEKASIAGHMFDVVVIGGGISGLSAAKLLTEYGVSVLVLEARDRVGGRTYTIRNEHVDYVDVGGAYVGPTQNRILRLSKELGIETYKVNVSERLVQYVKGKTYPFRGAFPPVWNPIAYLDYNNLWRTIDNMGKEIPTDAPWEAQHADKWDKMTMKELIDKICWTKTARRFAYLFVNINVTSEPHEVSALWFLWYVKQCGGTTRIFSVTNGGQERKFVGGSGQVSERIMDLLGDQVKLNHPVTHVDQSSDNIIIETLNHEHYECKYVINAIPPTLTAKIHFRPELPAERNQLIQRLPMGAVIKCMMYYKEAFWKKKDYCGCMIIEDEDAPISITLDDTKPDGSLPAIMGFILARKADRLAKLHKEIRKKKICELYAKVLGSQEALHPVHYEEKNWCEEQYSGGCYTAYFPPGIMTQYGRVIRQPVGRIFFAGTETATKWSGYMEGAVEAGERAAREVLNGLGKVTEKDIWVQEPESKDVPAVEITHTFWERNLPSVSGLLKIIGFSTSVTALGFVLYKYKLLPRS
Description: Inhibition of recombinant human MAO-A after 20 mins using 50 uM kynuramine as substrate by fluorescence spectrophotometry

[3] = molecular target: T1, Amine oxidase [flavin-containing] B; assay: Competition inhibition of recombinant human MAO-B pretreated with compound for 15 mins followed by addition of 50 uM kynuramine as substrate by Lineweaver-Burk plot method
[4] = molecular target: T2, Amine oxidase [flavin-containing] A; assay: Inhibition of recombinant human MAO-A assessed as enzyme activity pretreated with compound for 15 mins followed by addition of 50 uM kynuramine as substrate measured after 24 hrs; parameters: scale not given: the % may be the effect or the level left
[5] = molecular target: T1, Amine oxidase [flavin-containing] B; assay: Inhibition of recombinant human MAO-B assessed as enzyme activity pretreated with compound for 15 mins followed by addition of 50 uM kynuramine as substrate measured after 24 hrs; parameters: scale not given: the % may be the effect or the level left
[6] = molecular target: T1, Amine oxidase [flavin-containing] B; assay: Inhibition of recombinant human MAO-B pretreated with compound for 15 mins followed by addition of 50 uM kynuramine as substrate by Michaelis-Menten method
[7] = molecular target: T2, Amine oxidase [flavin-containing] A; assay: Inhibition of recombinant human MAO-A activity pretreated with compound for 15 mins followed by addition of 50 uM kynuramine as substrate by Michaelis-Menten method
[8] = molecular target: T2, Amine oxidase [flavin-containing] A; assay: Competition inhibition of recombinant human MAO-A pretreated with compound for 15 mins followed by addition of 50 uM kynuramine as substrate by Lineweaver-Burk plot method
[9] = Lipophilicity, logP of the compound by shake-flask method; format: physicochemical; details: octanol/water
[10] = molecular target: T2, Amine oxidase [flavin-containing] A; assay: Reversible inhibition of recombinant human MAO-A assessed as enzyme activity recovered pretreated with compound for 15 mins followed by addition of 50 uM kynuramine as substrate measured after 24 hrs by dialysis; parameters: scale not given: the % may be the effect or the level left

SMILES | Ratio IC50 (Homo sapiens) | IC50 [1] | IC50 [2] | Ki [3] | Activity [4] | Activity [5] | Ki [6] | Ki [7] | Ki [8] | logP [9] | Activity [10]
O=c1oc2cc(O)ccc2s1 [TIOXOLONE] | 1 | 9570 nM | 9770 nM |  |  |  |  |  |  |  | 
O=c1oc2cc(OCc3ccc(Cl)cc3)ccc2s1 | 63 | 3 nM | 189 nM | 3.5 nM | 73% | 39% | 3.9 nM | 560 nM | 360 nM | 5.61 | 93%
O=c1oc2cc(OCc3ccccc3)ccc2s1 | 101 | 51 nM | 5140 nM |  |  |  |  |  |  | 3.8 | 
O=C1OCc2cc(OCc3ccccc3)ccc21 |  | 62 nM | 26700 nM |  |  |  |  |  |  |  | 
C#CCN(C)Cc1ccccc1 [PARGYLINE] |  |  |  |  |  |  |  |  |  |  | 0.9%
